Test [1] concerns Mycobacterium tuberculosis H37Rv. Description: Mycobacterium tuberculosis H37Rv Inhibition Assay (Whole Cell Assay). It counts as cell-based. To be noted: ATCC 25618 / H37Rv, H37Rv strain (ATCC25618), Middlebrook 7H9, six days at 37° C., resazurin fluorescence after 48 hours.
Test [2] deals with T1, Mycobacterium tuberculosis InhA (Mycobacterium tuberculosis, UniProt P9WGR1).
T1 construct: made in house; host or cells: E. coli
Description: Mycobacterium tuberculosis InhA Inhibition Assay (Enzyme Assay). It is filed as biochemical. Particulars: 5 nM InhA, 50 μM DDCoA, 50 μM NADH, PIPES buffer pH 6.8, initial velocities of NADH consumption. The protocol:
Mycobacterium tuberculosis InhA Inhibition Assay (Enzyme Assay)
InhA is able to reduce 2-trans enoyl-CoA esters with concomitant oxidation of NADH to NAD^+. The assay format is based on the kinetic detection of NADH consumption.
Assay for InhA inhibition is carried out with mycobacterium recombinant protein expressed and purified form E. coli. Standard assay conditions for the determination of kinetic constants and inhibitors activity use 5 nM of InhA, 50 μM of Dodecenoyl-CoA synthesized and purified as described by Quernard et al (DDCoA) and 50 μM of NADH as substrates, and it is carried out in 30 mM PIPES buffer pH 6.8, containing 0.05% of BSA. […] Triclosan is used as positive control in every experiment. One μl of compounds is added to the wells containing 25 μl of the DDCoA+NADH mix, the reaction is started by adding 50 μl of the enzyme solution. Fluorescence from NADH is followed at room temperature during 20 minutes in a fluorescent plate reader (excitation at 340 nm; emission at 480 nm). IC50 values are determined using initial velocities of NADH consumption.
Quernard A, Sacchettini J C, Dessen A, et al. Enzymatic characterization of the target for isoniazid in Mycobacterium tuberculosis. Biochemistry 1995; 34:8235-41.

Values after ≈ are worked out from the molar mass of the structure shown. Read-outs that look alike come from different tables or passages of the source. Some results are limits rather than exact numbers.

T1 sequence (P9WGR1 whole entry, looked up): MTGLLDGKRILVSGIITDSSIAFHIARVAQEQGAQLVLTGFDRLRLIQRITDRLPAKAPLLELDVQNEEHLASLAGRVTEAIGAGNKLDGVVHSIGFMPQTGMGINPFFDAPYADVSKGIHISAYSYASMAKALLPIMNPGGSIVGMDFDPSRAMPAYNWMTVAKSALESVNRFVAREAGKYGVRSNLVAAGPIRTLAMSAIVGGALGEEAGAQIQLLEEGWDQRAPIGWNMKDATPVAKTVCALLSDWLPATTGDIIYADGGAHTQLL

For `Cc1ccn([C@@H](C)c2nnc(Nc3ccn(Cc4c(F)cccc4Cl)n3)s2)n1` (single isomer, unassigned) [Example 67], the MIC in test [1] is 1 to 4 µM (≈ 0.418 to 1.67 µg/mL). Moreover, the IC50 in test [2] (read-out: IC50 value) is < 120 nM.
On the same counts, the results for `CC(c1nc(C(F)(F)F)cs1)c1nnc(Nc2ccn(Cc3c(F)cccc3Cl)n2)s1` (centres unmarked) [Example 31, N-{1-[(2-chloro-6-fluorophenyl)methyl]-1H-pyrazol-3-yl}-5-{1-[4-(trifluoromethyl)-1,3-thiazol-2-yl]ethyl}-1,3,4-thiadiazol-2-amine] are > 10 µM and < 102 nM.
`Cc1cc(C)n(C(C)c2nnc(Nc3ccn(Cc4c(F)ccc(C)c4F)n3)s2)n1` (centres unmarked) [Example 81, N-{1-[(2,6-difluoro-3-methylphenyl)methyl]-1H-pyrazol-3-yl}-5-[1-(3,5-dimethyl-1H-pyrazol-1-yl)ethyl]-1,3,4-thiadiazol-2-amine]: the MIC in test [1] is ≤ 1 µM. Besides, the IC50 in test [2] (IC50 value) was < 116 nM.
Compound `CCOC(=O)Nc1cccc(Cn2ccc(Nc3nnc(C(C)(O)c4nc(C)cs4)s3)n2)c1F` (centres unmarked) [Intermediate 121, Ethyl (2-fluoro-3-{[3-({5-[1-hydroxy-1-(4-methyl-1,3-thiazol-2-yl)ethyl]-1,3,4-thiadiazol-2-yl}amino)-1H-pyrazol-1-yl]methyl}phenyl)carbamate] came in with an MIC in test [1] of 1 to 4 µM (≈ 0.504 to 2.01 µg/mL). For the same compound, in test [2] (IC50 value), the concentration for half-maximal inhibition (IC50) was < 99.3 nM.
Consider `FC(F)(F)c1ccn(Cc2nnc(Nc3ccn(Cc4ccccc4Cl)n3)s2)n1` [Example 59, N-{1-[(2-chlorophenyl)methyl]-1H-pyrazol-3-yl}-5-{[3-(trifluoromethyl)-1H-pyrazol-1-yl]methyl}-1,3,4-thiadiazol-2-amine], for which, in test [1], the MIC is > 10 µM. Moreover, in test [2] (read-out: IC50 value), the IC50 lay within 227 to 1140 nM.
In turn, `Cc1csc(C(C)c2nnc(Nc3ccn(Cc4c(F)ccc(C)c4F)n3)s2)n1` (centres unmarked) [Example 85, N-{1-[(2,6-difluoro-3-methylphenyl)methyl]-1H-pyrazol-3-yl}-5-[1-(4-methyl-1,3-thiazol-2-yl)ethyl]-1,3,4-thiadiazol-2-amine] displayed an MIC in test [1] of 1 to 4 µM (≈ 0.433 to 1.73 µg/mL). Also, the IC50 in test [2] (IC50 value) is < 116 nM.
Take `Cc1cc(C(F)F)nn1Cc1nnc(Nc2ccn(Cc3c(F)cccc3Cl)n2)s1` [Example 55, N-{1-[(2-chloro-6-fluorophenyl)methyl]-1H-pyrazol-3-yl}-5-([3-(difluoromethyl)-5-methyl-I H-pyrazol-1-yl]methyl}-1,3,4-thiadiazol-2-amine]: the MIC in test [1] is > 10 µM. Moreover, the IC50 in test [2] (read-out: IC50 value) was < 110 nM.
`Cc1cc(C)n(C(C)c2nnc(Nc3ccn(Cc4ccccc4F)n3)s2)n1` (centres unmarked) [Example 6, 5-[1-(3,5-dimethyl-1H-pyrazol-1-yl)ethyl]-N-{1-[(2-fluorophenyl)methyl]-1H-pyrazol-3-yl}-1,3,4-thiadiazol-2-amine] registered an MIC in test [1] of 1 to 4 µM (≈ 0.397 to 1.59 µg/mL). In addition, in test [2] (read-out: IC50 value), the IC50 was < 126 nM.
Regarding `Cc1cc(C)n(C(C)c2nnc(Nc3cc(C)n(Cc4c(F)cccc4Cl)n3)s2)n1` (centres unmarked) [Example 19, N-{1-[(2-chloro-6-fluorophenyl)methyl]-5-methyl-1H-pyrazol-3-yl}-5-[1-(3,5-dimethyl-1H-pyrazol-1-yl)ethyl]-1,3,4-thiadiazol-2-amine], the MIC in test [1] was 1 to 4 µM (≈ 0.446 to 1.78 µg/mL). Moreover, the half-maximal inhibitory concentration (IC50) in test [2] (read-out: IC50 value) is < 112 nM.
`Cc1cc(C)n(C(C)c2nnc(Nc3ccn(Cc4cc(Cl)ccc4Cl)n3)s2)n1` (centres unmarked) [Example 2, N-{1-[(2,5-dichlorophenyl)methyl]-1H-pyrazol-3-yl}-5-[1-(3,5-dimethyl-1H-pyrazol-1-yl)ethyl]-1,3,4-thiadiazol-2-amine]: the MIC in test [1] is > 10 µM. Also, in test [2] (read-out: IC50 value), the half-maximal inhibitory concentration (IC50) is < 112 nM.
As to `Cc1ccn(C(C)c2nnc(Nc3ccn(Cc4ccccc4Cl)n3)s2)n1` (centres unmarked) [Example 42, N-{1-[(2-chlorophenyl)methyl]-1H-pyrazol-3-yl}-5-[1-(3-methyl-1H-pyrazol-1-yl)ethyl]-1,3,4-thiadiazol-2-amine], the MIC in test [1] was in the range of 1 to 4 µM (≈ 0.4 to 1.6 µg/mL). Besides, the IC50 in test [2] (read-out: IC50 value) was < 125 nM.
Take `O=[N+]([O-])c1ccn(Cc2nnc(Nc3ccn(Cc4c(F)cccc4Cl)n3)s2)n1` [Example 52, N-{1-[(2-chloro-6-fluorophenyl)methyl]-1H-pyrazol-3-yl}-5-[(3-nitro-1H-pyrazol-1-yl)methyl]-1,3,4-thiadiazol-2-amine]: in test [1], the MIC is > 10 µM. In test [2] (IC50 value), the IC50 was in the range of 115 to 230 nM.
In the case of `Cc1cc(C)n(C(C)c2nnc(Nc3ccn(Cc4ccccc4Br)n3)s2)n1` (centres unmarked) [Example 3, N-{1-[(2-bromophenyl)methyl]-1H-pyrazol-3-yl}-5-[1-(3,5-dimethyl-1H-pyrazol-1-yl)ethyl]-1,3,4-thiadiazol-2-amine], the MIC in test [1] fell in the range of 1 to 4 µM (≈ 0.458 to 1.83 µg/mL). In test [2] (read-out: IC50 value), the IC50 is < 109 nM.
Compound `Cc1cc(C(F)F)nn1C(C)c1nnc(Nc2ccn(Cc3ccccc3)n2)s1` (centres unmarked) [Example 43, 5-{1-[3-(difluoromethyl)-5-methyl-1H-pyrazol-1-yl]ethyl}-N-[1-(phenylmethyl)-1H-pyrazol-3-yl]-1,3,4-thiadiazol-2-amine] registered an MIC in test [1] of 4 to 10 µM (≈ 1.66 to 4.15 µg/mL). Also, in test [2] (read-out: IC50 value), the IC50 is < 120 nM.
On to `Cc1cc(C)n(C(C)c2nnc(Nc3ccn(Cc4ccc(Cl)cc4)n3)s2)n1` (centres unmarked) [Example 34, N-{1-[(4-chlorophenyl)methyl]-1H-pyrazol-3-yl}-5-[1-(3,5-dimethyl-1H-pyrazol-1-yl)ethyl]-1,3,4-thiadiazol-2-amine], for which the MIC in test [1] was 4 to 10 µM (≈ 1.66 to 4.14 µg/mL). In test [2] (IC50 value), this compound displayed a half-maximal inhibitory concentration (IC50) of 121 to 242 nM.
With `Cc1cc(C)n(C(C)c2nnc(Nc3ccn(Cc4ccccc4C)n3)s2)n1` (centres unmarked) [Example 20, 5-[1-(3,5-dimethyl-1H-pyrazol-1-yl)ethyl]-N-{1-[(2-methylphenyl)methyl]-1H-pyrazol-3-yl}-1,3,4-thiadiazol-2-amine], in test [1], the MIC lay in the range of 1 to 4 µM (≈ 0.394 to 1.57 µg/mL). Besides, the IC50 in test [2] (read-out: IC50 value) was < 127 nM.
As for `Cc1ccn(C(C)c2nnc(Nc3ccn(Cc4ccccc4)n3)s2)n1` (centres unmarked) [Example 44, 5-[1-(3-methyl-1H-pyrazol-1-yl)ethyl]-N-[1-(phenylmethyl)-1H-pyrazol-3-yl]-1,3,4-thiadiazol-2-amine], in test [1], the minimum inhibitory concentration (MIC) is 1 to 4 µM (≈ 0.365 to 1.46 µg/mL). This compound had an IC50 in test [2] (IC50 value) of 137 to 274 nM.
On to `Cc1ccn(C(C)c2nnc(Nc3ccn(Cc4cccc(C)c4F)n3)s2)n1` (centres unmarked) [Example 13, N-{1-[(2-fluoro-3-methylphenyl)methyl]-1H-pyrazol-3-yl}-5-[1-(3-methyl-1H-pyrazol-1-yl)ethyl]-1,3,4-thiadiazol-2-amine], for which the MIC in test [1] is ≤ 1 µM. For the same compound, in test [2] (read-out: IC50 value), the IC50 is < 126 nM.
In test [1], `Cc1cc(C(F)F)nn1C(C)c1nnc(Nc2ccn(Cc3ccccc3Cl)n2)s1` (centres unmarked) [Example 41, N-{1-[(2-chlorophenyl)methyl]-1H-pyrazol-3-yl}-5-{1-[3-(difluoromethyl)-5-methyl-1H-pyrazol-1-yl]ethyl}-1,3,4-thiadiazol-2-amine] gave an MIC of 4 to 10 µM (≈ 1.8 to 4.5 µg/mL). For the same compound, the IC50 in test [2] (read-out: IC50 value) is < 111 nM.
For the compound `Cc1cc([N+](=O)[O-])nn1Cc1nnc(Nc2ccn(Cc3ccccc3Cl)n2)s1` [Example 58, N-{1-[(2-chlorophenyl)methyl]-1H-pyrazol-3-yl}-5-[(5-methyl-3-nitro-1H-pyrazol-1-yl)methyl]-1,3,4-thiadiazol-2-amine], the minimal inhibitory concentration (MIC) in test [1] was > 10 µM. The IC50 in test [2] (read-out: IC50 value) was 232 to 1160 nM.
Turning to `Cc1ccn(C(C)c2nnc(Nc3ccn(Cc4c(F)cccc4F)n3)s2)n1` (centres unmarked) [Example 76, N-{1-[(2,6-difluorophenyl)methyl]-1H-pyrazol-3-yl}-5-[1-(3-methyl-1H-pyrazol-1-yl)ethyl]-1,3,4-thiadiazol-2-amine], the minimal inhibitory concentration (MIC) in test [1] was ≤ 1 µM. Also, the IC50 in test [2] (IC50 value) was < 125 nM.
`Cc1ccn(C(C)c2nnc(Nc3ccn(Cc4cc(Cl)ccc4Cl)n3)s2)n1` (centres unmarked) [Example 4, N-{1-[(2,5-dichlorophenyl)methyl]-1H-pyrazol-3-yl}-5-[1-(3-methyl-1H-pyrazol-1-yl)ethyl]-1,3,4-thiadiazol-2-amine] displayed a minimal inhibitory concentration (MIC) in test [1] of 4 to 10 µM (≈ 1.74 to 4.34 µg/mL). Moreover, in test [2] (read-out: IC50 value), the half-inhibitory concentration (IC50) is < 115 nM.
The like results for `Cc1ccn(C(C)c2nnc(Nc3ccn(Cc4cccc(F)c4F)n3)s2)n1` (centres unmarked) [Example 15, N-{1-[(2,3-difluorophenyl)methyl]-1H-pyrazol-3-yl}-5-[1-(3-methyl-1H-pyrazol-1-yl)ethyl]-1,3,4-thiadiazol-2-amine] were, in that order, 1 to 4 µM (≈ 0.401 to 1.61 µg/mL) and < 125 nM.
As to `Cc1cc(C)n(C(C)c2nnc(Nc3ccn(Cc4cc(C(F)(F)F)ccc4Cl)n3)s2)n1` (centres unmarked) [Example 11, N-(1-{[2-chloro-5-(trifluoromethyl)phenyl]methyl}-1H-pyrazol-3-yl)-5-[1-(3,5-dimethyl-1H-pyrazol-1-yl)ethyl]-1,3,4-thiadiazol-2-amine], the MIC in test [1] was > 10 µM. Further, the IC50 in test [2] (read-out: IC50 value) is < 104 nM.
`COC(c1nc(C)cs1)c1nnc(Nc2ccn(Cc3c(F)cccc3F)n2)s1` (centres unmarked) [Example 73, N-{1-[(2,6-difluorophenyl)methyl]-1H-pyrazol-3-yl}-5-[(methyloxy)(4-methyl-1,3-thiazol-2-yl)methyl]-1,3,4-thiadiazol-2-amine]: the MIC in test [1] was > 10 µM. The compound also gave an IC50 in test [2] (IC50 value) of 115 to 230 nM.

For the origin of these results see patent publication US8524750B2, “(Pyrazol-3-yl)-1,3,4-thiadiazol-2-amine and (pyrazol-3-yl)-1,3,4-thiazol-2-amine compounds” (Glaxo Group Limited, priority 2009, dated 2013).
